Source: article PMC7583830 (Molecules, 2020)
Values joined by “and” are separate entries in the source; they are usually repeats but may differ in a detail not shown here. Identical values can stand only once. Like-named read-outs stand apart in the source and are kept apart here. Where a SMILES comes first, the peptide text is derived from it. [ ]: non-standard residue; d: D form. The star is where a group is joined. DOTA = O=C(O)CN1CCN(CC(=O)O)CCN(CC(=O)*)CCN(CC(=O)O)CC1; 1Nal = N[C@@H](Cc1cccc2ccccc12)C(=O)O; NMeNle = CCCC[C@H](NC)C(=O)O

Experiments:
[1] = Stability in fresh human serum (radio-HPLC); type: in vitro ADME; details: 24 h incubation, 37 °C
Method: (§1) In vitro stability studies for the characterization of the metabolic stability of the radiolabeled peptide analogs in human serum were carried out with [^177Lu]Lu-1, [^177Lu]Lu-M1, [^177Lu]Lu-M2, [^177Lu]Lu-M3 and [^177Lu]Lu-M4 (n = 2). Additional stability studies in rat liver and kidney homogenates were performed for [^177Lu]Lu-1 (n = 2). Tissue homogenates were prepared from dissected organs by homogenization for 1 min at RT (IKA-Werke, Staufen, Germany) in 20 mM HEPES buffer pH 7.3 (30% v/v). The radioligands were incubated in the different media at a concentration of 500 pmol/mL (corresponding to an activity of 6–11 MBq). After incubation at 37 °C at different time points for up to 24 h, a 100 µl sample was taken in duplicates and analyzed by HPLC. Samples obtained from human serum and rat homogenates were treated with ACN at a ratio of 1:1.5 (v/v) to precipitate proteins, centrifuged (14,000 rpm, 2 min, centrifuge 5424, Eppendorf AG, Germany) and diluted with water at a ratio of 1:1 (v/v). A 100 µl aliquot of this solution was injected into the radio HPLC system. The degradation of the radioligand was evaluated based on the radiochemical purity after radiolabeling and the percentage of intact radiopeptide observed during incubation in the different media.

[2] = Stability in rat liver homogenate; type: in vitro ADME
Method: as §1

[3] = Stability in rat kidney homogenate; type: in vitro ADME
Method: as §1

[4] = Distribution coefficient (logD) in octanol/PBS; type: physicochemical; details: octanol/PBS pH 7.4; read-out: logD
Method: The mixture was vigorously vortexed at room temperature over a period of 15 min using a small shaker (MS3 Basic, IKA, Staufen, Germany) with speed of 1500 rpm.

[5] = Protein binding in human serum by size exclusion chromatography; type: in vitro ADME; details: 24 h incubation
Method: For protein binding assessment, the radiolabeled DOTA-peptides were incubated in fresh human serum at 37 °C (500 pmol/mL, n = 2). After 1, 4 and 24 h of incubation, two samples were taken for each time point and analyzed by Sephadex G-50 size-exclusion chromatography (GE Healthcare Illustra, Little Chalfont, UK). The percentage of protein binding was determined by measuring the column and the eluate with the gamma-counter.

[6] = Biodistribution in BALB/c mice; type: in vivo; details: for tissue uptake at 0.5 h / tissue uptake at 1 h / tissue uptake at 10 min: female, BALB/c, mouse, iv, total radioactivity; for tissue uptake at 0.5 h: 30 min p.i.; for tissue uptake at 1 h: 1 h p.i.
Method: Metabolic biodistribution studies were performed in accordance with the ethical standards of the institution and approved by the Austrian Ministry of Science (BMWFW-66.011/0072-V/3b/2019). These studies were carried out in 5- to 7-week-old female BALB/c mice (n = 3) injected with [^177Lu]Lu-1 via a lateral tail vein. To allow monitoring of the metabolites by radio-HPLC, mice were injected with 30 MBq corresponding to 0.8 nmol total peptide. The mice were euthanized by cervical dislocation after different time points of 10 min, 30 min and 1 h p.i. and the urine and a venous blood sample were collected at the time of sacrifice. Liver and kidneys were dissected and homogenized in 20 mM HEPES buffer pH 7.3 at a ratio of 1:1 (v/v) with an Ultra-Turrax T8 homogenizer (IKA-Werke, Staufen, Germany) for 1 min at RT. Before radio-HPLC analysis, the samples (except urine) were treated with ACN at a ratio of 1:1 (v/v) to precipitate proteins, centrifuged at 2000× g for 2 min and diluted with water at a ratio of 1:1 (v/v). For HPLC analysis of the samples, the analytical HPLC system described above with a flow rate of 1 mL/min was used together with the following optimized water/ACN/0.1% TFA gradient to allow a better separation of [^177Lu]Lu-1 and the different radiometabolites: 0–7 min 1–7% ACN, 7–8 min 7–10% ACN, 8–18 min 10–18% ACN, 18–20 min 18–32% ACN, 20–27 min 32% ACN, 27–37 min […], 37–40 min 80% ACN, 40–40.1 min 80–1% ACN, 40.1–45 min 1% ACN. Urine was measured with the low-sensitivity loop of the radiodetector. The remaining samples were analyzed with the high-sensitivity loop due to the lower radioactivity present in blood, liver and kidney homogenate. To quantify the percentage of intact [^177Lu]Lu-1 and [^177Lu]Lu-M1 showing some overlap in the radiochromatogram when using the high-sensitivity loop of the radiodetector, the two radiopeptides were co-injected at different known ratios to enable a more accurate separation and integration of the two peaks (see supporting Figure S4). Mice from the metabolic biodistribution studies were subjected to a further dissection of all remaining tissues (blood, lung, heart, femur, spleen, muscle, intestine, pancreas and stomach). All organs, also including liver and kidneys, were weighed, and their radioactivity was measured in the gamma counter together with a standard and the residual body. To quantify the uptake of radioactivity in liver and kidneys, a part of liver and kidney homogenate was measured in the gamma counter to extrapolate the radioactivity for the whole organ.

[7] = blood, 30 MBq, read-out: uptake in blood
[8] = femur, 30 MBq, read-out: uptake in femur
[9] = heart, 30 MBq, read-out: uptake in heart
[10] = intestine, 30 MBq, read-out: uptake in intestine
[11] = kidneys, 30 MBq, read-out: uptake in kidneys
[12] = liver, 30 MBq, read-out: uptake in liver
[13] = lung, 30 MBq, read-out: uptake in lung
[14] = muscle, 30 MBq, read-out: uptake in muscle
[15] = pancreas, 30 MBq, read-out: uptake in pancreas
[16] = spleen, 30 MBq, read-out: uptake in spleen
[17] = stomach, 30 MBq, read-out: uptake in stomach

CCCC[C@@H](C(=O)N[C@@H](CC(=O)O)C(=O)N[C@@H](Cc1cccc2ccccc12)C(N)=O)N(C)C(=O)[C@H](Cc1c[nH]c2ccccc12)NC(=O)CNC(=O)[C@H](Cc1ccc(O)cc1)NC(=O)[C@@H]1CCCN1C(=O)[C@@H](CCC(=O)O)NC(=O)CN1CCN(CC(=O)O)CCN(CC(=O)O)CCN(CC(=O)O)CC1 [[^177Lu]Lu-1, metal not drawn] ({DOTA}-[dE]PYGW[NMeNle]D[1Nal]-NH2)
intact radiopeptide [1]: 96.2 ± 1.3%
intact radiopeptide ([2]; 30 min): 83.6 ± 0.2% and 84%
intact radiopeptide ([2]; 2 h): 52.9 ± 2.0% and > 50%
intact radiopeptide ([2]; 24 h): 49.3 ± 1.7%
intact radiopeptide ([2]; up to 20 min incubation): > 90%
intact radiopeptide ([3]; 20 min): 65.6 ± 2.8%
intact radiopeptide ([3]; 30 min): 43.9 ± 1.0% and 44%
intact radiopeptide ([3]; 2 h): < 5%
intact radiopeptide ([3]; 24 h): < 1%
logD [4]: -1.96 ± 0.07
fraction unbound [5]: 0.622
whole body activity ([6]; 10 min p.i.): 61.78 % IA
whole body activity ([6]; 1 h after injection): 12.27 % IA
tissue uptake at 0.5 h [6, 7]: 5.08 %ID/g
tissue uptake at 1 h [6, 7]: 2.05 %ID/g
tissue uptake at 10 min ([6]; blood, 10 min p.i., 30–40 MBq, 0.8 nmol, read-out: uptake in blood): 17.8 %ID/g
tissue uptake at 10 min ([6]; femur, 30 MBq, 10 min p.i., read-out: uptake in femur): 5.97 %ID/g
tissue uptake at 0.5 h [6, 8]: 1.28 %ID/g
tissue uptake at 1 h [6, 8]: 0.52 %ID/g
tissue uptake at 10 min ([6]; heart, 30 MBq, 10 min p.i., read-out: uptake in heart): 7.13 %ID/g
tissue uptake at 0.5 h [6, 9]: 2.72 %ID/g
tissue uptake at 1 h [6, 9]: 0.99 %ID/g
tissue uptake at 10 min ([6]; intestine, 30 MBq, 10 min p.i., read-out: uptake in intestine): 2.63 %ID/g
tissue uptake at 0.5 h [6, 10]: 1.61 %ID/g
tissue uptake at 1 h [6, 10]: 1.02 %ID/g
tissue uptake at 10 min ([6]; kidneys, 30 MBq, 10 min p.i., read-out: uptake in kidneys): 14.5 %ID/g
tissue uptake at 0.5 h [6, 11]: 10.8 %ID/g
tissue uptake at 1 h [6, 11]: 7.01 %ID/g
tissue uptake at 10 min ([6]; liver, 30 MBq, 10 min p.i., read-out: uptake in liver): 5.37 %ID/g
tissue uptake at 0.5 h [6, 12]: 2.95 %ID/g
tissue uptake at 1 h [6, 12]: 1.26 %ID/g
tissue uptake at 10 min ([6]; lung, 30 MBq, 10 min p.i., read-out: uptake in lung): 17.4 %ID/g
tissue uptake at 0.5 h [6, 13]: 5.03 %ID/g
tissue uptake at 1 h [6, 13]: 1.95 %ID/g
tissue uptake at 10 min ([6]; muscle, 30 MBq, 10 min p.i., read-out: uptake in muscle): 2.56 %ID/g
tissue uptake at 0.5 h [6, 14]: 1.03 %ID/g
tissue uptake at 1 h [6, 14]: 0.36 %ID/g
tissue uptake at 10 min ([6]; pancreas, 30 MBq, 10 min p.i., read-out: uptake in pancreas): 3.39 %ID/g
tissue uptake at 0.5 h [6, 15]: 1.76 %ID/g
tissue uptake at 1 h [6, 15]: 0.84 %ID/g
tissue uptake at 10 min ([6]; spleen, 30 MBq, 10 min p.i., read-out: uptake in spleen): 3.7 %ID/g
tissue uptake at 0.5 h [6, 16]: 2 %ID/g
tissue uptake at 1 h [6, 16]: 0.79 %ID/g
tissue uptake at 10 min ([6]; stomach, 30 MBq, 10 min p.i., read-out: uptake in stomach): 3.36 %ID/g
tissue uptake at 0.5 h [6, 17]: 2.29 %ID/g
tissue uptake at 1 h [6, 17]: 1.39 %ID/g
washout at 1 h versus 10 min p.i. ([6]; non-excretory organs (blood, lung, heart, femur, spleen and muscle)): 79–91%
percentage decrease of radioactivity at 1 h versus 10 min p.i. ([6]; pancreas): 75%
percentage decrease of radioactivity at 1 h versus 10 min p.i. ([6]; stomach): 59%
